Literature values, collected in patent US6413525B1, “Methods of exfoliation using N-acetyl glucosamine” (Color Access, Inc., priority 1999, dated 2002).

System: skin
Conditions: as disclosed in WO97/12597

Structure (SMILES): CC(=O)N[C@H]1C(O)O[C@H](CO)[C@@H](O)[C@@H]1O (stereo partly drawn) [N-acetyl-D-glucosamine]
- efficacy as a topical desquamating agent: not found to be effective
